Experimental findings from patent US20150259331A1, “PROTOZOAN PARASITE GROWTH INHIBITORS” (Northeastern University, priority 2014, published 2015) are described below.

Assay [1] has as its system T. brucei brucei Lister 427. Briefly: Trypanosome replication assay. It is filed as cell-based, Trypanosoma brucei brucei. The conditions noted are these: 48 h, concentration giving 50% inhibition of growth of T brucei brucei Lister 427 cells, 48 h, values ±7%, read-out: Tbb EC50. As to the method: Then 2 μL of DMSO (control) or different concentrations of drugs prepared from 200× DMSO stocks were added to the cultures. Cells were incubated at 37° C. for 48 h and counted with a hemocytometer. […] All experiments were repeated thrice in independent studies where each dose was administered in duplicate (total n=6). HepG2 Cell Toxicity Assay. The 384 well MTT cytotoxicity assay is a modification of the MTT method described by Ferrari et al. optimized for 384-well throughput, with modifications described below.

The subject of another assay is HepG2 cells. The assay is described as follows: HepG2 cell toxicity (MTT) assay. It is filed as cell-based. The conditions noted are these: Homo sapiens, HepG2, 48 h, MTT, 48 hour incubation; read-out: HepG2 IC50. On the procedure: Then 2 μL of DMSO (control) or different concentrations of drugs prepared from 200× DMSO stocks were added to the cultures. […] All experiments were repeated thrice in independent studies where each dose was administered in duplicate (total n=6). HepG2 Cell Toxicity Assay. The 384 well MTT cytotoxicity assay is a modification of the MTT method described by Ferrari et al. optimized for 384-well throughput, with modifications described below.
HepG2 Cell Toxicity assay. The 384 well MTT cytotoxicity assay is a modification of the MTT method described by Ferrari et al.^1 ENREF—26_ENREF—26_ENREF—26 optimized for 384 well throughput. […] 4.25 μL of diluted test compound was then added to the 38.3 μL of media in each well providing a 10 fold final dilution of compound. […] After a 48 hour incubation period, 8 μL of a 1.5 mg/ml solution of MTT diluted in complete MEM media was added to each well. All plates were subsequently incubated in the dark for 1 hour at room temperature. After incubation, the media and drugs in each well was removed by shaking plate over sink, the plates are then left to dry in hood for 15 minutes. […] Plates are put on a 3-D rotator for 15-30 minutes. Absorbance was determined in all wells using a Tecan iControl 1.6 Infinite plate reader.

The next assay deals with T. cruzi. Briefly: T. cruzi growth inhibition. It is filed as cell-based, Trypanosoma cruzi.
In the next assay the test system is L. major promastigote. The assay is described as follows: L. major promastigote assay. It is filed as cell-based.
The test system of another assay is P. falciparum C235. Briefly: P. falciparum C235 assay. It is filed as cell-based. The conditions noted are these: strain C235; read-out: P. falciparum C235 (EC50).
Another assay relates to P. falciparum W2. The assay is described as follows: P. falciparum W2 assay. In kind it is cell-based. As to conditions: strain W2; read-out: P. falciparum W2 (EC50).
The next assay relates to L. major amastigote. The assay is described as follows: L. major amastigote assay. It is filed as cell-based.
A further assay has as its system P. falciparum D6. Briefly: P. falciparum D6 assay. In kind it is cell-based. As to conditions: strain D6.

Counter-ions that a name gives are not always drawn. Like-named read-outs stand apart in the source and are kept apart here. Marks after values point to notes of the source that are not given here.

For orientation: EC50 means the concentration that produces a half-maximal response. The term IC50 denotes the concentration at which inhibition is half-maximal. Turning to `O=S(=O)(c1ccc(-c2ccc3ncnc(Nc4ccc(OCc5cccc(F)c5F)c(Cl)c4)c3c2)cc1)N1CCOCC1` [Compound 20h, N-(3-Chloro-4-((2,3-difluorobenzyl)oxy)phenyl)-6-(4-(morpholinosulfonyl)phenyl)quinazolin-4-amine Hydrochloride], the EC50 in assay [1] (Trypanosoma brucei) worked out at 820 nM. The 50% inhibitory concentration (IC50) with HepG2 cells was over 15000 nM.

On to `O=C(c1cccc(-c2ccc3ncnc(Nc4ccc(OCc5cccc(F)c5)c(Cl)c4)c3c2)c1)N1CCCC1` [NEU-618], for which the concentration giving a half-maximal response (EC50) in assay [1] was 520 nM; in the assay with L. major promastigote, over 15000 nM; with P. falciparum C235 it was 90 nM; in the assay on P. falciparum W2, 90 nM; in the assay with L. major amastigote it was over 15000 nM; in the assay on P. falciparum D6 it was 69 nM. In addition, the “T. cruzi % inh at 10 μM” value with T. cruzi is “(7)* %”.

Take `CC(C)(C)OC(=O)N1CCN(S(=O)(=O)c2ccc(-c3ccc4ncnc(Nc5ccc(OCc6cccc(F)c6)c(Cl)c5)c4c3)cc2)CC1` [NEU-624]: the EC50 in assay [1] worked out at 1000 nM; with L. major promastigote, 14000 nM; in the assay on P. falciparum C235, 430 nM; with P. falciparum W2, 580 nM; with L. major amastigote, 14000 nM; with P. falciparum D6 it was 270 nM. Moreover, in the assay with T. cruzi, the “T. cruzi % inh at 10 μM” value is reported as “(5)* %”.

In the case of `Cc1cc(-c2ccc3ncnc(Nc4ccc(OCc5cccc(F)c5)c(Cl)c4)c3c2)cnc1N1CCOCC1` [NEU-632], the EC50 stood at 1000 nM in assay [1]; 3600 nM in the assay on L. major promastigote; 360 nM in the assay with P. falciparum C235; 540 nM with P. falciparum W2; 1100 nM with L. major amastigote; 260 nM in the assay with P. falciparum D6. For the same compound, the “T. cruzi % inh at 10 μM” value in the assay with T. cruzi turned out to be 49%.

`CC(C)(C)OC(=O)N1CCN(c2ccc(-c3ccc4ncnc(Nc5ccc(OCc6cccc(F)c6)c(Cl)c5)c4c3)cc2)CC1` [NEU-634]: the EC50 in assay [1] came out at 6000 nM; in the assay with L. major promastigote, 3100 nM; in the assay with P. falciparum C235, 1100 nM; in the assay with P. falciparum W2, 3200 nM; in the assay with L. major amastigote it was 3100 nM; with P. falciparum D6, 860 nM. Further, the “T. cruzi % inh at 10 μM” value in the assay on T. cruzi is “(8)* %”.

With `O=C(c1cncc(-c2ccc3ncnc(Nc4ccc(OCc5cccc(F)c5)c(Cl)c4)c3c2)c1)N1CCOCC1` [NEU-640], the EC50 is 340 nM in assay [1]; over 15000 nM in the assay with L. major promastigote; 500 nM with P. falciparum C235; 630 nM in the assay with P. falciparum W2; over 15000 nM with L. major amastigote; 370 nM with P. falciparum D6. In the assay on T. cruzi, the “T. cruzi % inh at 10 μM” value is reported as −2%.

Take `Fc1cccc(COc2ccc(Nc3ncnc4ccc(-c5ccccc5)cc34)cc2Cl)c1` [NEU-706]: the EC50 stood at 3900 nM in assay [1]; 1800 nM with T. cruzi; 4000 nM with L. major promastigote; 1200 nM in the assay on P. falciparum C235; 2600 nM in the assay on P. falciparum W2; 22000 nM in the assay with L. major amastigote. In addition, the EC50 with P. falciparum D6 came out at 790 nM.

For the compound `CN(C)c1cccc(-c2ccc3ncnc(Nc4ccc(OCc5cccc(F)c5)c(Cl)c4)c3c2)c1` [NEU-708], the EC50 in assay [1] was 2200 nM; in the assay on L. major promastigote it was over 15000 nM; in the assay with P. falciparum C235, 550 nM; in the assay on P. falciparum W2, 1400 nM; with L. major amastigote, over 15000 nM; with P. falciparum D6, 460 nM. Moreover, the “T. cruzi % inh at 10 μM” value in the assay on T. cruzi was “(58)* %”.

In the case of `Fc1cccc(COc2ccc(Nc3ncnc4ccc(-c5cccc(-n6cccn6)c5)cc34)cc2Cl)c1` [NEU-709], the EC50 is 7500 nM in assay [1]; over 15000 nM in the assay with L. major promastigote; 19000 nM in the assay with P. falciparum C235; 19000 nM with P. falciparum W2; over 15000 nM with L. major amastigote; 19000 nM in the assay on P. falciparum D6. Further, the “T. cruzi % inh at 10 μM” value in the assay on T. cruzi is “(10)* %”.

For the compound `Fc1cccc(COc2ccc(Nc3ncnc4ccc(-c5ccc(N6CCNCC6)cc5)cc34)cc2Cl)c1` [NEU-710], the EC50 in assay [1] was 370 nM; in the assay with T. cruzi, 1400 nM; in the assay with L. major promastigote it was over 15000 nM; in the assay with P. falciparum C235, 760 nM; with P. falciparum W2, 630 nM; in the assay on L. major amastigote it was 8600 nM. It took 380 nM to reach a half-maximal effect in the assay on P. falciparum D6 (EC50).

As to `Fc1cccc(COc2ccc(Nc3ncnc4ccc(-c5cccc(N6CCSCC6)c5)cc34)cc2Cl)c1` [NEU-713], the EC50 in assay [1] was 770 nM; in the assay with L. major promastigote, over 15000 nM; with P. falciparum C235, 780 nM; in the assay with P. falciparum W2, 1300 nM; in the assay on L. major amastigote it was 10000 nM; in the assay with P. falciparum D6, 440 nM. Besides, the “T. cruzi % inh at 10 μM” value in the assay with T. cruzi was “(55)* %”.

Consider `CN1CCN(c2cccc(-c3ccc4ncnc(Nc5ccc(OCc6cccc(F)c6)c(Cl)c5)c4c3)c2)CC1` [NEU-714], for which the EC50 in assay [1] came out at 550 nM; in the assay with L. major promastigote, 1900 nM; in the assay on P. falciparum C235 it was 110 nM; in the assay with P. falciparum W2, 59 nM; in the assay with L. major amastigote, 4200 nM; in the assay with P. falciparum D6, 44 nM. For the same compound, the “T. cruzi % inh at 10 μM” value with T. cruzi is reported as “(72)* %”.

As for `Fc1cccc(Cn2ncc3ccc(Nc4ncnc5ccc(-c6cccc(N7CCOCC7)c6)cc45)cc32)c1` [NEU-734], the EC50 is 840 nM in assay [1]; 980 nM with L. major promastigote; 1100 nM in the assay with P. falciparum C235; 740 nM in the assay with P. falciparum W2; over 15000 nM in the assay on L. major amastigote; 910 nM with P. falciparum D6. Besides, in the assay with T. cruzi, the “T. cruzi % inh at 10 μM” value is reported as “(62)* %”.

For the compound `CN1CCN(S(=O)(=O)c2ccc(-c3ccc4ncnc(Nc5ccc(OCc6ccccc6)c(Cl)c5)c4c3)cc2)CC1` [NEU-764], the EC50 in assay [1] was found to be 610 nM; in the assay on T. cruzi it was 3900 nM; in the assay with L. major promastigote, 3400 nM; in the assay on P. falciparum C235, 28 nM; with P. falciparum W2, 51 nM; in the assay with L. major amastigote, 2200 nM. The compound also showed an EC50 in the assay on P. falciparum D6 of 29 nM.

For the compound `CN1CCN(S(=O)(=O)c2ccc(-c3ccc4ncnc(Nc5ccc(OCc6ccccc6)cc5)c4c3)cc2)CC1` [NEU-765], the EC50 in assay [1] was determined as 630 nM; with T. cruzi it was 9900 nM; with L. major promastigote, 1500 nM; with P. falciparum C235 it was 36 nM; in the assay with P. falciparum W2 it was 110 nM; in the assay with L. major amastigote, 1900 nM. Moreover, the response in the assay with P. falciparum D6 was half-maximal at 41 nM (EC50).

With `COc1ccc(Nc2ncnc3ccc(-c4ccc(S(=O)(=O)N5CCN(C)CC5)cc4)cc23)cc1Cl` [NEU-766], the EC50 in assay [1] was 780 nM; in the assay on T. cruzi, over 50000 nM; in the assay with L. major promastigote it was 5900 nM; with P. falciparum C235 it was 58 nM; with P. falciparum W2, 210 nM; with L. major amastigote it was over 15000 nM. The compound further came in with an EC50 with P. falciparum D6 of 33 nM.

With `CN1CCN(S(=O)(=O)c2ccc(-c3ccc4ncnc(Nc5ccccc5)c4c3)cc2)CC1` [NEU-767], the EC50 was 1500 nM in assay [1]; over 50000 nM with T. cruzi; 6100 nM in the assay with L. major promastigote; 730 nM in the assay with P. falciparum C235; 1500 nM in the assay on P. falciparum W2; over 15000 nM in the assay on L. major amastigote. Also, it took 700 nM to reach a half-maximal effect in the assay with P. falciparum D6 (EC50).

As for `CN1CCN(S(=O)(=O)c2ccc(-c3ccc4ncnc(Nc5ccc(F)cc5)c4c3)cc2)CC1` [NEU-768], the EC50 in assay [1] is 2000 nM; in the assay with T. cruzi, over 50000 nM; with L. major promastigote, 12000 nM; in the assay on P. falciparum C235, 380 nM; with P. falciparum W2, 780 nM; in the assay with L. major amastigote, over 15000 nM. The EC50 with P. falciparum D6 was 360 nM.

In the case of `CN1CCN(S(=O)(=O)c2ccc(-c3ccc4ncnc(Nc5ccc(Cl)cc5)c4c3)cc2)CC1` [NEU-769], the half-maximal effective concentration (EC50) was 2400 nM in assay [1]; 21000 nM in the assay with T. cruzi; 4600 nM in the assay with L. major promastigote; 170 nM in the assay on P. falciparum C235; 390 nM in the assay with P. falciparum W2; over 15000 nM in the assay on L. major amastigote. Besides, the EC50 in the assay with P. falciparum D6 came out at 110 nM.

On to `CN1CCN(S(=O)(=O)c2cccc(-c3ccc4ncnc(Nc5ccc(OCc6cccc(F)c6)c(Cl)c5)c4c3)c2)CC1` [NEU-770], for which the EC50 in assay [1] was 3300 nM; with T. cruzi, 1400 nM; with L. major promastigote, over 15000 nM; with P. falciparum C235, 33 nM; with P. falciparum W2 it was 84 nM; with L. major amastigote it was 1200 nM. Also, the EC50 in the assay with P. falciparum D6 came out at 38 nM.

Consider `CN1CCN(S(=O)(=O)c2ccc(-c3ccc4ncnc(Nc5ccc6cnn(Cc7cccc(F)c7)c6c5)c4c3)cc2)CC1` [NEU-771], for which the EC50 in assay [1] was 1200 nM; in the assay on T. cruzi, 1500 nM; in the assay on L. major promastigote, over 15000 nM; with P. falciparum C235 it was 40 nM; with P. falciparum W2, 90 nM; in the assay with L. major amastigote, over 15000 nM. Further, the EC50 in the assay with P. falciparum D6 was 39 nM.
